Measured values reported in patent publication US4472408A, “Substituted trifluoromethylphenyltetrahydropyridines having an anorectic activity” (Sanofi, priority 1981, dated 1984).
Structures can show the parent of a compound that is named as a salt. Where two headings read alike, the source gives them in different places.

Key:
[1] = acute toxicity, LD50 in the rat by oral or intraperitoneal route; conditions: in vivo
From the text: the acute toxicity, expressed as LD50 in the rat by the oral or intraperitoneal route (A);

[2] = anorectic activity, food intake in the rat; format: in vivo; conditions: in vivo, read-out: A/B, ratio acute toxicity to anorectic activity (therapeutic index)
Description: (§1) The anorectic activity was assessed by the method of the food intake in the rat. Female rats weighing 200 g are used, which were trained for 10 days to eat during a period of 4 hours and selected on the eighth day. At the end of the tenth day, the randomised animals were divided into a "control group" treated by the vehicle alone, and into several "treated groups". Treatment was effected by the intraperitoneal or oral route 30 minutes or 1 hour before presentation of the food and the quantity of food therefor taken during the first hour was then measured.
(§2) the anorectic activity, expressed as oral or intraperitoneal dose inhibiting by 50% the food intake (ID50, B);
(§3) the ratio between the acute toxicity and the anorectic activity which expresses the therapeutic index related to the acute toxocity (A/B).

food intake in the rat [3] = test: anorectic activity, food intake in the rat; format: in vivo; conditions: 1 h, food taken during first hour, read-out: ID50 (B), dose inhibiting by 50% the food intake
Description: as §1, §2, §3

cerebral serotonin [4] = test: cerebral rates of serotonin after i.p. or oral administration (Curzon and Green); format: in vivo
From the text: Table II hereinbelow summarises the cerebral rates of serotonin, in percentage with respect to the controls, after intraperitoneal or oral administration of four representative compounds of the present invention. The determination of the cerebral rates, according to Curzon and Green (Brit. J. Pharmacol. 39, 653, 1970) was effected one hour and/or two hours after administration. Fenfluramine was used as reference product.

cerebral serotonin [5] = conditions: at doses very close to the anorectic dose; Arch. Intern. Pharmacodyn. Ther. 1967; cited from earlier work
food intake in the rat [6] = conditions: background; cited from earlier work
[7] = target: post-synaptic serotonin receptors; test: 3H-serotonin binding to rat cortex membranes (Peroutka and Snyder)
Description: The affinity of the compounds of the present invention for the post-synaptic serotinin receptors was determined according to the method of Peroutka and Snyder (Molec. Pharmacol. 1979, 16, 687-699) which consists in incubating rat cortex membranes with a fixed concentration of ^3 H-serotonin in the presence of different concentrations of product. […] Fenfluramine was used as reference compound.

[8] = background; cited from earlier work
[9] = i.p., 7.5 mg/kg, 2 hrs (fenfluramine: significant P < 0.01)

SMILES | LD50 ([1]; ip) | LD50 ([1]; oral) | selectivity ratio ([2]; ip) | selectivity ratio ([2]; oral) | ED50 (food intake in the rat [3]; oral) | ED50 (food intake in the rat [3]; ip, i.p.) | cerebral rates of serotonin (cerebral serotonin [4]; [9]) | cerebral rates of serotonin (cerebral serotonin [4]; i.p., 15.0 mg/kg, 2 hrs) | also measured
Cl.N#CCCN1CC=C(c2cccc(C(F)(F)F)c2)CC1 [Example 2, 4-(3-trifluoromethylphenyl)-1-(2-cyanoethyl)-1,2,3,6-tetrahydropyridine hydrochloride] | 206 mg/kg | 254 mg/kg | 17.1 | 26.7 | 9.5 mg/kg | 12 mg/kg | 128 % with respect to controls | 146 % with respect to controls | cerebral rates of serotonin (cerebral serotonin [4]; i.p., 15.0 mg/kg, 1 hr): 131.0 % with respect to controls; cerebral rates of serotonin (cerebral serotonin [4]; i.p., 30.0 mg/kg, 2 hrs): 146 % with respect to controls
Cl.N#CCCCN1CC=C(c2cccc(C(F)(F)F)c2)CC1 [Example 3, 4-(3-trifluoromethylphenyl)-1-(3-cyanopropyl)-1,2,3,6-tetrahydropyridine hydrochloride] | 258 mg/kg | 538 mg/kg | 23.3 | 46 | 11.7 mg/kg | 11.1 mg/kg | – | – | –
N#CCCCCN1CC=C(c2cccc(C(F)(F)F)c2)CC1 [Example 4, 4-(3-trifluoromethylphenyl-1-(4-cyanobutyl)-1,2,3,6-tetrahydropyridine hydrochloride] | – | 336 mg/kg | – | 32 | 10.5 mg/kg | – | – | – | –
CC(=O)CN1CC=C(c2cccc(C(F)(F)F)c2)CC1.Cl [Example 5, 4-(3-trifluoromethylphenyl)-1-acetonyl-1,2,3,6-tetrahydropyridine hydrochloride] | 165 mg/kg | – | 15.3 | – | – | 10.8 mg/kg | – | – | –
CC(=O)CCN1CC=C(c2cccc(C(F)(F)F)c2)CC1.Cl [Example 6, 4-(3-trifluoromethylphenyl)-1-(3-oxobutyl)-1,2,3,6-tetrahydropyridine hydrochloride] | 134 mg/kg | 299 mg/kg | 20.6 | 25.3 | 11.8 mg/kg | 6.5 mg/kg | 108 % with respect to controls | 116 % with respect to controls | cerebral rates of serotonin (cerebral serotonin [4]; i.p., 3.25 mg/kg, 2 hrs): 109 % with respect to controls
Cl.FC(F)(F)c1cccc(C2=CCN(CC3CC3)CC2)c1 [Example 7, 4-(3-trifluoromethylphenyl)-1-cyclopropylmethyl-1,2,3,6-tetrahydropyridine hydrochloride] | 135 mg/kg | – | 24.6 | – | – | 5.5 mg/kg | 123 % with respect to controls | 119 % with respect to controls | cerebral rates of serotonin (cerebral serotonin [4]; i.p., 3.25 mg/kg, 2 hrs): 111 % with respect to controls
Cl.FC(F)(F)c1cccc(C2=CCN(CCC3CCCCC3)CC2)c1 [Example 10, 4-(3-trifluoromethylphenyl)-1-(2-cyclohexylethyl)-1,2,3,6-tetrahydropyridine hydrochloride] | – | 488 mg/kg | – | 188 | 2.6 mg/kg | – | – | – | cerebral rates of serotonin (cerebral serotonin [4]; oral, 1.25 mg/kg, 2 hrs): 99 % with respect to controls; cerebral rates of serotonin (cerebral serotonin [4]; oral, 2.5 mg/kg, 2 hrs): 95 % with respect to controls; cerebral rates of serotonin (cerebral serotonin [4]; oral, 5 mg/kg, 2 hrs): 101 % with respect to controls
CCNC(C)Cc1cccc(C(F)(F)F)c1 (centres unmarked) [fenfluramine, reference compound] | – | – | 15.8 | 25.1 | 4 mg/kg | 5.4 mg/kg | 53.1 % with respect to controls | – | effect on cerebral rates of serotonin (in words) (cerebral serotonin [5]): induces a significant reduction in the cerebral rates of serotonin; anorectic activity (in words) (food intake in the rat [6]): excellent anorectic activity; IC50 [7]: > 10 µM; sedative or stimulant action (in words) [8]: instead of being stimulant, has a certain sedative action; cerebral rates of serotonin (cerebral serotonin [4]; i.p., 5 mg/kg, 1 hr, significant P < 0.05): 82.9 % with respect to controls; cerebral rates of serotonin (cerebral serotonin [4]; i.p., 7.5 mg/kg, 1 hr, significant P < 0.05): 81.6 % with respect to controls; cerebral rates of serotonin (cerebral serotonin [4]; i.p., 10 mg/kg, 1 hr, significant P < 0.01): 79.0 % with respect to controls; effect on cerebral rates of serotonin (in words) (cerebral serotonin [4]; in vivo): induces a significant reduction of cerebral serotonin
